We go through one substance from patent publication US5008416A, “Organogermanium compound, process for the preparation of same as well as use thereof” (Sanwa Kagaku Kenkyusho Co., Ltd., priority 1989, dated 1991).

One assay has as its system tumor bearing mice. The assay is described as follows: Influence on antibody production in tumor bearing mice (Pharmacological Experiment 1). It counts as in vivo, mouse (ICR male). The conditions noted are these: for Number of PFC: 5 days, mean ± standard error, n = 7. The method, then: Influence of the organogermanium compound on antibody production ability is checked with use of tumor bearing mice, as experimental animals reduced in their immunity response.
Tumor bearing mice were prepared by implanting 2×10^6 cells of mouse tumor cell (Sarcoma 180) under a skin of each ICR male mouse (age of 6 weeks) to form a solid tumor.
The organogermanium compound (Production Example 4) dissolved in 4% bovine serum albumin solution was orally administered to the tumor bearing mice over 5 days after lapsed 9 days from the implantation of the tumor cells, by a dose of 0.1, 1.0 or 10.0 mg/kg/day.
After lapsed 14 days from the implantation, 2×10^8 cells of sheep red blood cells (SRBC) were injected in a tail vein of the mice for sensitization. After 4 days from the sensitization, spleen was removed and number of PFC in 10^6 spleen cells was measured, as an index of the antibody production in the tumor bearing mice.

The test system of another assay is Sarcoma 180 tumor cells. The assay is described as follows: Anti-tumor effect, Sarcoma 180 (Pharmacological Experiment 7). It counts as in vivo, mouse (ICR male). The conditions noted are these: for Inhibition (development of solid tumor) / Tumor weight: 10 days, 20th day; for Tumor weight: mean ± standard error, n = 10. As to the method:
An anti-tumor effect of the organogermanium compound according to the invention is examined to Sarcoma 180 tumor cells.
Sarcoma 180 tumor cells were subcutaneously implanted with 2×10^6cells to male ICR mice (n=10) as experimental animals to form a solid tumor. The organogermanium compound (Example 4) dissolved in 4% bovine serum albumin was orally administered at the dose of 0.1, 1.0 and 10.0 mg/kg once a day for 10 days on the day after the implantation.
On the 20th day from the implantation, formed solid tumor was removed and weighed. An antitumor effect represented the inhibitory percent of the compound on the development of solid tumor.

The subject of a further assay is Lewis lung carcinoma. The assay is described as follows: Anti-tumor effect, Lewis lung carcinoma (Pharmacological Experiment 6). Type of assay: in vivo, mouse (C57BL/6 male). The settings on record: for Inhibition (development of solid tumor) / Tumor weight: 5 days, 14th day; for Tumor weight: mean ± standard deviation, n = 10. As to the method:
An anti-tumor effect of the organogermanium compound according to the invention is examined.
C57BL/6 male mice (n=10) as experimental animals were subcutaneously implanted with 1×10^5 cells of Lewis lung carcinoma to form a solid tumor. The organogermanium compound (Example 4) dissolved in 4% bovine serum albumin was orally administered at the dose of 0.1, 1.0 and 10.0 mg/kg once a day for 5 days on days 1 to 5 after the tumor implantation.
On 14th day from the implantation, formed solid tumor was removed and weighed. An antitumor effect represented the inhibitory percent of the compound on the development of solid tumor.

The mark [1] stands for this setting: 1.0 mg/kg orally once a day, (*) p < 0.05 vs Control.

Regarding “Sodium 2-oxygermylethanesulfonate polymer [Example 4]”, the “Number of PFC” value with tumor bearing mice (0.1 mg/kg/day orally, (*) p < 0.05 vs tumor bearing) stood at 745 ± 66 PFC in 10^6 spleen cells; in the assay on tumor bearing mice (1.0 mg/kg/day orally), 948 ± 195 PFC in 10^6 spleen cells; in the assay on tumor bearing mice (10.0 mg/kg/day orally, (***) p < 0.001 vs tumor bearing) it was 1071 ± 89 PFC in 10^6 spleen cells. Also, in the assay on tumor bearing mice (0.1-10.0 mg/kg/day orally, depending on dosing amount), the “Antibody production (result in words)” value is “the reduced antibody production due to generation of the tumor increased to a normal level”. Also, the “Inhibition (development of solid tumor)” value came to 28% with Sarcoma 180 tumor cells (0.1 mg/kg orally once a day); 69% with Sarcoma 180 tumor cells (1.0 mg/kg orally once a day); 38% with Sarcoma 180 tumor cells (10.0 mg/kg orally once a day); 6.8% in the assay with Lewis lung carcinoma (0.1 mg/kg orally once a day); 46.3% in the assay with Lewis lung carcinoma (1.0 mg/kg orally once a day); 28.4% in the assay on Lewis lung carcinoma (10.0 mg/kg orally once a day). The Tumor weight is 1.87 ± 0.46 g in the assay on Sarcoma 180 tumor cells (0.1 mg/kg orally once a day); 0.82 ± 0.22 g with Sarcoma 180 tumor cells (setting [1]); 1.61 ± 0.29 g with Sarcoma 180 tumor cells (10.0 mg/kg orally once a day); 1.77 ± 0.47 g in the assay on Lewis lung carcinoma (0.1 mg/kg orally once a day); 1.02 ± 0.16 g with Lewis lung carcinoma (setting [1]); 1.36 ± 0.31 g in the assay on Lewis lung carcinoma (10.0 mg/kg orally once a day). Moreover, in the assay on Sarcoma 180 tumor cells (0.1, 1.0 and 10.0 mg/kg orally), the “Growth of Sarcoma 180 solid tumor (result in words)” value was “reduced the growth of Sarcoma 180 solid tumor cells”. Besides, the “Growth of Lewis lung carcinoma (result in words)” value in the assay on Lewis lung carcinoma (0.1, 1.0 and 10.0 mg/kg orally) is “significantly inhibited the growth of Lewis lung carcinoma”.
